Test results published in PMC4526861, “Inhibition of protein kinase C by isojacareubin suppresses hepatocellular carcinoma metastasis and induces apoptosis in vitro and in vivo” (Scientific Reports, 2015).

Biological target: T1, PKCμ (Homo sapiens, UniProt Q15139)
T1 construct: Endogenous cPKC (PKCα) and nPKC (PKCδ, PKCε and PKCμ) in HepG2 lysates were pulled down; endogenous in cells; host or cells: HepG2
T1 sequence (Q15139 1-912): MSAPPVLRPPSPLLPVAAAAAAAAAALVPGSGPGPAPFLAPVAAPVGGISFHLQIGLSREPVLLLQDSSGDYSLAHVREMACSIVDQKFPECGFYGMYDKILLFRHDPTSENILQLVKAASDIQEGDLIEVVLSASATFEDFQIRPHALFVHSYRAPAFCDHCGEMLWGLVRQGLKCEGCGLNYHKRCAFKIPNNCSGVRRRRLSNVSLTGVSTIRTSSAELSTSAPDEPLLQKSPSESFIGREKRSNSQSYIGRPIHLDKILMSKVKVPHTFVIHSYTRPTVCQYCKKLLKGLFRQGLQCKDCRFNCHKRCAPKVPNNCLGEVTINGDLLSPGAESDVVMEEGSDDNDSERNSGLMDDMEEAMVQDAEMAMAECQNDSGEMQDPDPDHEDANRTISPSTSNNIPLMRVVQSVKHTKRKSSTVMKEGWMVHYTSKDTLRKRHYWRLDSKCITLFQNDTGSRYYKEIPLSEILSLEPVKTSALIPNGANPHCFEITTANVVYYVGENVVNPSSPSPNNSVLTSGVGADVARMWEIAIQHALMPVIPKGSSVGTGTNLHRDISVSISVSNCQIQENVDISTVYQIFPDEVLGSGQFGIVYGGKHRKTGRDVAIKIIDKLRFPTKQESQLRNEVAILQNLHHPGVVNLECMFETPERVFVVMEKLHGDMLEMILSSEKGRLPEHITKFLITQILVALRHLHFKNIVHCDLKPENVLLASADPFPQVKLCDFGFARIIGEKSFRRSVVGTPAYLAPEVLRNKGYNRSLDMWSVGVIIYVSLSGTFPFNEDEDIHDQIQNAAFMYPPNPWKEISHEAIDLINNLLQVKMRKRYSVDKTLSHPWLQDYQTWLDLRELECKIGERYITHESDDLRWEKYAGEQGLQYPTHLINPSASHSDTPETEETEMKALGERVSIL
Test: Cell-based pull-down assay, PKCμ
Format: binding
Settings: HepG2 lysates
Description: To identify whether ISJ and compound 7 target PKC in cells, we performed pull-down experiments using ISJ- and compound 7-coupled Sepharose beads with HepG2 cell lysates. Endogenous cPKC (PKCα) and nPKC (PKCδ, PKCε and PKCμ) in HepG2 lysates were pulled down by ISJ-coupled CNBr-activated Sepharose 4B beads (Fig. 5a).
The control beads were prepared by incubating the beads with DMSO. Proteins (500 μg) from lysed HepG2 cells were mixed with either the control beads, compound 7-coupled beads, or ISJ-coupled beads (100 μL) in reaction buffer [50 mM Tris (pH 7.5), 5 mM EDTA, 150 mM NaCl, 1 mM DTT, 0.01% NP-40, 2 μg/mL BSA, 1 mM PMSF, 1% protease inhibitor mixture]. After incubation with gentle rocking overnight at 4 °C, the beads were washed 5 times with washing buffer [50 mM Tris (pH 7.5), 5 mM EDTA, 150 mM NaCl, 1 mM DTT, 0.01% NP-40, 1 mM PMSF], and binding was visualized by western blotting.

Substance: Isojacareubin [ISJ]
- pull-down of endogenous PKCμ by compound-coupled Sepharose 4B beads: pulled down
